From patent publication US20080293676A1, “Insecticidal Agents Based on Selected Insecticides and Safeners” (priority 2004, published 2008)

Tests used:
Format in all cases: in vivo
[1] = tested on: cotton aphid (Aphis gossypii); assay: Aphis gossypii test, spray treatment to runoff on infested cotton plants
Excerpt: (§1) The expected activity for a given combination of two active ingredients can be calculated (cf. Colby, S. R.; “Calculating Synergistic and Antagonistic Responses of Herbicide Combinations”, Weeds 15, pages 20-22, 1967):
(§2) If • x=the kill rate, expressed in % of the untreated control, when employing active ingredient A at an application rate of m ppm, • Y=the kill rate, expressed in % of the untreated control, when employing active ingredient B at an application rate of n ppm, and • E=the kill rate, expressed in % of the untreated control, when employing active ingredients A and B at application rates of m and n ppm, then
(§3) If the actual insecticidal kill rate is higher than the calculated one, the kill of the combination is superadditive, i.e. a synergistic effect is present. In this case, the kill rate that is actually observed has to be higher than the value, calculated using the formula above, for the expected kill rate (E).
(§4) An appropriate solution is prepared by mixing 1 part by weight of formulation with the stated amount of water and adjuvant, and diluting the concentrate with water to the desired concentration.
Cotton plants (Gossypium herbaceum) heavily infested by the cotton aphid (Aphis gossypii) are sprayed to runoff with the desired concentration of the application solution.
(§5) After the desired time the kill in % is determined in each case. In this context, 100% means that all of the larvae have been killed; 0% means that no larvae have been killed. The kill figures determined are calculated in accordance with the Colby formula described above.

[2] = tested on: green peach aphid (Myzus persicae); assay: Myzus persicae test, spray treatment to runoff on infested bell pepper plants; details: for Kill in % after 1^d: Table E2
Excerpt: as §1, §2, §3, §4
Bell pepper plants (Capsicum sativum) heavily infested by the green peach aphid (Myzus persicae) are sprayed to runoff with the desired concentration of the application solution.
as §5

[3] = tested on: caterpillars of the army worm (Spodoptera frugiperda); assay: Spodoptera frugiperda test, spray treatment to runoff on corn plants
Excerpt: as §1, §2, §3, §4
b) Spodoptera frugiperda Test
Corn plants (Zea mais) are sprayed to runoff with the desired use concentration and are populated with caterpillars of the army worm (Spodoptera frugiperda) while the leaves are still wet.
as §5

[4] = tested on: larvae of the cabbage moth (Plutella xylostella); assay: Plutella xylostella test, spray treatment to runoff on cabbage plants; details: Table B
Excerpt: as §1, §2, §3, §4
c) Plutella xylostella Test
Cabbage plants (Brassica pekinesis) are sprayed to runoff with the desired use concentration and are populated with larvae of the cabbage moth (Plutella xylostella) while the leaves are still wet.
as §5

[5] = tested on: caterpillars of the cotton boll worm (Heliothis armigera); assay: Heliothis armigera test, spray treatment to runoff on cotton plants; details: Table A, 4 ppm
Excerpt: as §1, §2, §3, §4
a) Heliothis armigera Test […]
After the desired time the kill in % is determined in each case. […] The kill figures determined are calculated in accordance with the Colby formula described above.

Molecule: CC1(C)C(C=C(Cl)Cl)C1C(=O)OC(C#N)c1ccc(F)c(Oc2ccccc2)c1 (stereo not drawn) [β-Cyfluthrin, Beta-Cyfluthrin]
- Kill in % after 3^d ([1]; Table D1, 0.8 ppm): 35%
- Kill in % after 3^d ([2]; Table E1, 0.8 ppm, after 3 d): 10%

Molecule: CNC(=O)Oc1cc(C)c(SC)c(C)c1 [Methiocarb]
- Kill in % after 3^d ([3]; Table C2, 20 ppm): 17%
- Kill in % after 7^d ([4]; 20 ppm): 0%

Molecule: CC1(C)[C@H](C(=O)O[C@H](C#N)c2cccc(Oc3ccccc3)c2)[C@@H]1C=C(Br)Br [Deltamethrin]
- Kill in % after 3^d ([1]; Table D2, 0.8 ppm): 15%
- Kill in % after 1^d ([2]; 0.8 ppm): 20%

Molecule: Clc1cc(Cl)nc(-c2ccccc2)n1 [Fenclorim, 4,6-dichloro-2-phenylpyrimidine]
- Kill in % after 3^d ([3]; Table C2, 100 ppm): 0%
- Kill in % after 7^d ([4]; 100 ppm): 0%
- Kill in % after 3^d ([1]; Table D1, 100 ppm): 0%
- Kill in % after 3^d ([1]; Table D2, 100 ppm): 0%

Molecule: C=CCN(CC=C)C(=O)C(Cl)Cl [Dichlormid a.i., 2,2-dichloro-N,N-di-2-propenylacetamide]
- Kill in % after 3^d ([3]; Table C2, 50 ppm): 0%
- Kill in % after 3^d ([1]; Table D1, 100 ppm): 0%

Molecule: Chlorpyrifos
- Kill in % after 3^d [5]: 0%
- Kill in % after 3^d ([3]; Table C1, 4 ppm): 50%
- Kill in % after 7^d ([4]; 4 ppm): 0%

Molecule: CC1(C)OC(c2ccco2)CN1C(=O)C(Cl)Cl (stereo not shown) [Furilazole a.i., 3-dichloroacetyl-5-(2-furanyl)-2,2-dimethyloxazolidine]
- Kill in % after 3^d ([3]; Table C2, 100 ppm): 0%
- Kill in % after 3^d ([1]; Table D1, 100 ppm): 0%
- Kill in % after 3^d ([1]; Table D2, 100 ppm): 0%
- Kill in % after 1^d ([2]; 100 ppm): 0%
